Key:
Test in all cases: relative viability (nuclei count vs DMSO), 5 days (fraction); higher = more cells survive
[1] = compound: O[C@@H](COc1cccc2ncccc12)CN1CCN([C@@H]2c3ccccc3[C@@H]3[C@H](c4ccccc42)C3(F)F)CC1 [Zosuquidar] + Cc1cc(Nc2cc(N3CCN(C)CC3)nc(Sc3ccc(NC(=O)C4CC4)cc3)n2)n[nH]1 [Tozasertib] (partner 0.1 µM)
Procedure, shortened: (§1)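 Dosing by pin tool came one day after lung cancer cell lines were seeded in 1536-well plates, using either one drug or a fixed anchor-drug dose plus five library-drug doses (not always all listed) in √10 steps. After 5 days, nuclei were counted on 4× images. Relative viability is treated-well nuclei count divided by vehicle-well nuclei count, and values are medians of duplicate plates.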

[2] = compound: O[C@@H](COc1cccc2ncccc12)CN1CCN([C@@H]2c3ccccc3[C@@H]3[C@H](c4ccccc42)C3(F)F)CC1 [Zosuquidar] + Cc1nc(NC(=O)N2CCC[C@H]2C(N)=O)sc1-c1ccnc(C(C)(C)C(F)(F)F)c1 [Alpelisib] (partner 2 µM)
Procedure, shortened: as §1

[3] = compound: C1=CC(=CC=C1NC(=S)NNC2=C(C=C(C=C2[N+](=O)[O-])C(F)(F)F)[N+](=O)[O-])F [Kobe2602] + CC1(C)CCC(c2ccc(Cl)cc2)=C(CN2CCN(c3ccc(C(=O)NS(=O)(=O)c4ccc(N[C@H](CCN5CCOCC5)CSc5ccccc5)c(S(=O)(=O)C(F)(F)F)c4)cc3)CC2)C1 [Navitoclax] (partner 0.5 µM)
Procedure, shortened: as §1

[4] = compound: O[C@@H](COc1cccc2ncccc12)CN1CCN([C@@H]2c3ccccc3[C@@H]3[C@H](c4ccccc42)C3(F)F)CC1 [Zosuquidar] + CC1(C)CCC(c2ccc(Cl)cc2)=C(CN2CCN(c3ccc(C(=O)NS(=O)(=O)c4ccc(N[C@H](CCN5CCOCC5)CSc5ccccc5)c(S(=O)(=O)C(F)(F)F)c4)cc3)CC2)C1 [Navitoclax] (partner 0.5 µM)
Procedure, shortened: as §1

Cell Line	relative viability ([1]; first compound 0.01 µM)	relative viability ([1]; first compound 0.03162 µM)	relative viability ([1]; first compound 0.1 µM)	relative viability ([1]; first compound 0.3162 µM)	relative viability ([1]; first compound 1 µM)	relative viability ([2]; first compound 0.01 µM)	relative viability ([2]; first compound 0.03162 µM)	relative viability ([2]; first compound 0.1 µM)	relative viability ([2]; first compound 0.3162 µM)	relative viability ([2]; first compound 1 µM)	relative viability ([3]; first compound 0.2 µM)	relative viability ([3]; first compound 0.6325 µM)	relative viability ([3]; first compound 2 µM)	relative viability ([3]; first compound 6.325 µM)	relative viability ([3]; first compound 20 µM)	relative viability ([4]; first compound 0.01 µM)	relative viability ([4]; first compound 0.03162 µM)	relative viability ([4]; first compound 0.1 µM)	relative viability ([4]; first compound 0.3162 µM)	relative viability ([4]; first compound 1 µM)
HOP-62	0.363	0.312	0.396	0.341	0.308	1.05	0.79	0.907	1.08	0.988	1.01	1.03	0.986	1	1.04	0.825	1.13	0.939	0.924	0.975
LC-2-ad	0.461	0.491	0.51	0.522	0.463	0.892	0.938	0.817	0.886	0.928	0.378	0.374	0.453	0.371	0.404	0.452	0.607	0.407	0.534	0.406
LCLC-97TM1	0.202	0.266	0.167	0.208	0.212	0.187	0.237	–	0.224	0.234	0.253	0.462	0.531	0.282	0.317	0.448	0.396	–	0.496	0.412
LK-2	0.171	0.163	0.174	0.172	0.183	1.29	1.26	0.939	1.08	1.02	0.899	1.06	0.815	0.825	0.891	0.989	0.931	0.875	0.954	0.847
LOU-NH91	0.697	0.624	–	0.706	0.71	0.702	0.717	0.6	0.718	0.725	0.702	0.816	0.644	0.697	0.68	0.624	0.695	0.571	0.739	0.68
LU99A	0.215	0.229	0.257	0.254	0.271	0.472	0.507	0.475	0.617	0.529	0.817	0.87	0.811	0.732	0.781	0.783	0.819	0.79	0.91	0.73
LXF-289	0.244	0.2	0.179	0.222	0.187	0.994	1.04	0.97	1.02	1.01	0.95	0.959	0.873	0.941	0.923	0.934	0.957	0.911	0.952	1.02
NCI-H23	0.393	0.629	0.537	0.34	0.362	0.669	0.718	0.728	0.704	0.687	0.744	0.741	0.97	0.679	0.993	0.765	0.96	0.746	0.79	0.862
NCI-H322M	0.461	0.54	0.383	0.445	0.519	0.836	0.739	0.648	0.859	0.728	1.28	1.31	1.25	1.26	0.631	1.26	1.16	1.08	1.29	1.14
NCI-H441	0.475	0.723	0.819	0.709	0.609	0.998	0.766	0.732	–	0.591	0.602	0.807	0.601	0.575	0.679	0.748	0.496	0.615	–	0.59
NCI-H460	0.335	0.474	0.671	0.476	0.323	0.398	0.526	0.539	0.551	0.529	1.12	1.16	1.19	1.1	1.06	1.07	1.3	1.24	1.14	1.23
NCI-H520	0.413	0.441	–	0.392	0.416	0.941	0.784	0.778	0.981	0.837	0.99	1.08	1.03	1.07	0.988	1.16	1.15	0.986	1.03	1.02
NCI-H596	0.877	–	0.986	1.16	0.905	0.467	0.512	0.502	0.589	0.591	0.908	1.05	0.949	0.962	0.992	1.04	1.05	0.861	0.982	0.972
NCI-H647	0.26	0.266	0.564	0.228	0.284	1.25	1.12	1.28	1.11	1.39	1.16	1.1	1.06	1.04	1.13	1.02	1.1	0.986	1.14	1.06
NCI-H727	0.675	0.484	0.45	0.439	0.401	0.669	0.631	0.536	0.588	0.577	0.392	0.431	0.356	0.389	0.456	0.426	0.528	0.328	0.454	0.391
NCI-H838	0.264	0.316	0.273	0.291	0.285	0.995	0.994	0.822	1.07	1.07	1.17	1.22	1.12	1.13	1.17	1.25	1.22	1.16	1.26	1.17

Cell Line	relative viability ([1]; first compound 0.01 µM)	relative viability ([1]; first compound 0.03162 µM)	relative viability ([1]; first compound 0.1 µM)	relative viability ([1]; first compound 0.3162 µM)	relative viability ([1]; first compound 1 µM)	relative viability ([2]; first compound 0.01 µM)	relative viability ([2]; first compound 0.03162 µM)	relative viability ([2]; first compound 0.1 µM)	relative viability ([2]; first compound 0.3162 µM)	relative viability ([2]; first compound 1 µM)	relative viability ([3]; first compound 0.2 µM)	relative viability ([3]; first compound 0.6325 µM)	relative viability ([3]; first compound 2 µM)	relative viability ([3]; first compound 6.325 µM)	relative viability ([3]; first compound 20 µM)	relative viability ([4]; first compound 0.01 µM)	relative viability ([4]; first compound 0.03162 µM)	relative viability ([4]; first compound 0.1 µM)	relative viability ([4]; first compound 0.3162 µM)	relative viability ([4]; first compound 1 µM)
NCI-H1355	0.527	0.542	0.623	0.612	0.519	0.851	0.801	0.596	0.971	0.87	0.887	0.94	0.945	0.901	0.902	1.06	0.951	0.797	0.954	1
NCI-H1395	0.729	0.893	0.804	0.81	0.755	1	1.01	0.819	1.17	1.17	1.07	1.09	1.12	1.11	1.33	1.11	1.08	1.12	1.28	1.15
NCI-H1437	0.41	0.408	0.424	0.396	0.381	0.966	0.961	0.935	1.01	0.994	1.04	1.07	1.11	1.11	0.901	1.08	1.1	1.06	1.15	1.15
NCI-H1651	0.603	0.607	0.782	0.627	0.623	1.05	1.02	0.856	0.915	0.975	1.11	1.08	1.18	1.03	1.02	0.949	0.987	1.05	0.977	1.01
NCI-H1666	0.596	0.62	0.666	0.587	0.592	0.876	1.04	1.04	0.912	0.863	1.02	0.982	–	0.77	0.924	0.906	1	1.03	1.02	0.818
NCI-H1734	0.263	0.254	0.243	0.268	0.263	0.815	0.666	0.631	0.809	0.643	0.899	0.924	0.842	0.837	0.926	0.922	0.925	0.754	0.862	0.787
NCI-H1755	0.541	0.634	0.535	0.634	0.564	0.89	0.951	0.888	0.94	0.913	0.999	0.995	0.969	0.96	0.926	0.988	1.01	0.954	1.07	0.949
NCI-H1793	0.345	0.534	–	0.393	0.376	0.717	0.665	–	0.825	0.776	0.528	0.445	0.415	0.413	0.459	0.407	0.444	–	0.499	0.396
NCI-H1915	0.406	0.453	0.447	0.461	0.405	1.04	1.1	0.989	1.06	1.08	0.796	0.827	0.797	0.791	0.795	0.756	0.79	0.796	0.802	0.743
NCI-H1944	0.244	0.24	0.254	0.243	0.248	0.836	0.722	0.717	0.837	0.765	1.02	1.04	1.09	1.08	1.13	1.06	1.02	1	1.18	0.945
NCI-H1975	0.74	0.775	1.01	0.803	0.787	0.624	0.653	0.679	0.675	0.713	1.08	0.955	0.968	1.1	0.928	1.13	1.14	1.17	1.14	0.993
NCI-H1993	0.564	0.5	0.578	0.595	0.541	0.628	0.725	0.625	0.674	0.705	0.678	0.707	0.787	0.687	0.729	0.966	0.978	0.896	1.1	0.802
NCI-H2009	0.538	0.518	0.574	0.46	0.436	1.08	0.96	1.19	1.15	1.14	1.19	1.25	1.14	1.19	1.14	1.19	1.12	1.13	1.1	1.14
NCI-H2023	0.335	0.426	0.407	0.398	0.314	0.601	0.636	0.6	0.548	0.613	0.976	1.11	0.892	0.927	0.917	0.958	1	0.916	1.05	0.92
NCI-H2085	0.852	0.886	0.778	0.835	0.856	0.957	0.917	0.893	1	0.977	1.2	1.16	1.08	1.23	1.14	1.13	1.06	1.06	1.2	1.14

— the supplement of paper PMC10307832
